In patent US20240059700A1, “NOVEL DIACYLGLYCERIDE O-ACYLTRANSFERASE 2 INHIBITORS” (Merck Sharp & Dohme LLC, priority 2020, published 2024):

Target: human DGAT2 (hDGAT2) (Homo sapiens (Human), UniProt Q96PD7)
Test: DGAT2 Enzymatic Activity Assay
Format: biochemical
Conditions: membrane prep of Sf-9 insect cells expressing hDGAT2; 13C18-triolein product by LC/MS/MS
Procedure: Sf-9 insect cells were maintained in Grace's insect cell culture medium with 10% heated-inactivated fetal bovine serum, 1% Pluronic F-68 and 0.14 μg/ml Kanamycine sulfate at 27° C. in a shaker incubator. After infection with untagged baculovirus expressing human DGAT2 (hDGAT2) at multiplicity of infection (MOI) 3 for 48 hours, cells were harvested. Cell pellets were suspended in buffer containing 10 mM Tris-HCl pH 7.5, 1 mM EDTA, 250 mM sucrose and Complete Protease Inhibitor Cocktail (Sigma Aldrich), and sonicated on ice. Cell debris were removed by centrifugation at 2000×g for 15 minutes. Membrane fractions were isolated by ultracentrifugation (100,000×g), resuspended in the same buffer, and frozen (−80° C.) for later use. The protein concentration was determined with the Pierce™ BCA Protein Assay Kit (Thermo Fisher Scientific). Expression of protein levels was analyzed by immunoblotting with rabbit anti-DGAT2 antibody (Abcam, ab102831) and donkey anti-rabbit IgG H&L Alexa Fluor® 647 (Abcam, ab150075) followed by detection using Typhoon FLA9000 (GE Healthcare).
LC/MS/MS analyses were performed using Thermal Fisher's LX4-TSQ Vantage system. This system consists of an Agilent binary high-performance liquid chromatography (HPLC) pumps and a TSQ Vantage triple quadrupole MS/MS instrument. For each sample, 2 μL samples from the top organic layer of in-plate liquid-liquid extraction were injected onto a Thermo Betabasic C4 column (2.1 mm×20 mm, 5 μm particle size). The samples were then eluted using the following conditions; mobile phase: Isopropanol: acetonitrile/10 mM ammonium formate=50/35/15 (v/v/v), flow rate: 0.8 mL/min, temperature: 25° C. Data was acquired in positive mode using a heated electrospray ionization (HESI) interface. The operational parameters for the TSQ Vantage MS/MS instrument were a spray voltage of 3000 V, capillary temperature of 280° C., vaporizer temperature 400° C., sheath gas 45 arbitrary unit, Aux gas 10 arbitrary units, S-lens 165 and collision gas 1.0 mTorr. […] (SRM) chromatograms of ^13C18-triolein (Q1: 920.8>Q3:621.3) and internal standard ^13C21-triolein (Q1: 923.8>Q3:617.3) were collected for 33 sec. The peak area was integrated by Xcalibur Quan software. The ratio between the ^13C18 triolein generated in the reaction and spiked in internal standard ^13C21-triolein was used to generate percentage inhibition and IC50 values. Compound percentage inhibition was calculated by the following formula: Inhibition %=1−[(compound response−low control)/(high control−low control)]×100%. Potent compounds were titrated and IC50 were calculated by 4 parameter sigmoidal curve fitting formula.
DGAT2 activity was determined by measuring the amount of enzymatic product ^13C18-triolein (^13C-1,2,3-Tri(cis-9-octadecenoyl)glycerol) using the membrane prep mentioned above. The assay was carried out in ABgene 384-well assay plates in a final volume of 25 μL at rt. The assay mixture contained the following: assay buffer (100 mM Tris·Cl, pH 7.0, 20 mM MgCl2, 5% ethanol), 25 μM of diolein, 5 μM of ^13C oleoyl-CoA and 8 ng/μL of DGAT2 membrane.

Sequence of human DGAT2 (hDGAT2) (Q96PD7 whole entry): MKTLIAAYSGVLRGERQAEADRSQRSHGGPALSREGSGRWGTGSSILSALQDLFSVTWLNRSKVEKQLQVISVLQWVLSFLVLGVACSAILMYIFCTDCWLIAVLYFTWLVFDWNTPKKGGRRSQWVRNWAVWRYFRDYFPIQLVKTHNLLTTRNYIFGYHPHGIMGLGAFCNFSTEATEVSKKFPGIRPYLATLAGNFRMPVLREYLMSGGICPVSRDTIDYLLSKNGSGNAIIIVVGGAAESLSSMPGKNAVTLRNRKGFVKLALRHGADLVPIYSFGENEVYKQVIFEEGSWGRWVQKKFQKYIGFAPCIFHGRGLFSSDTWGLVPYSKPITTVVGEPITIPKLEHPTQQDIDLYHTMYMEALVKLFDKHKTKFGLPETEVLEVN

| Compound | IC50 |
| --- | --- |
| CC1(NC(=O)c2cnc3c(-c4cccc(OC(F)F)c4)nn(C4COC4)c3c2)CS(=O)(=O)C1 [Example 61, 3-[3-(difluoromethoxy)phenyl]-N-(3-methyl-1,1-dioxo-thietan-3-yl)-1-(oxetan-3-yl)pyrazolo[4,3-b]pyridine-6-carboxamide] | 65 nM |
| CC1(NC(=O)c2cnc3c(-c4cccc(OC(F)F)c4)nn(C4CCOCC4)c3c2)CS(=O)(=O)C1 [Example 63, 3-(3-(difluoromethoxy)phenyl)-N-(3-methyl-1,1-dioxidothietan-3-yl)-1-(tetrahydro-2H-pyran-4-yl)-1H-pyrazolo[4,3-b]pyridine-6-carboxamide] | 18 nM |
| CC1(NC(=O)c2cnc3c(-c4cncc(OC(F)F)c4)nn(C4CCOCC4)c3c2)CS(=O)(=O)C1 [Example 64, 3-[5-(difluoromethoxy)-3-pyridyl]-N-(3-methyl-1,1-dioxo-thietan-3-yl)-1-tetrahydropyran-4-yl-pyrazolo[4,3-b]pyridine-6-carboxamide] | 177 nM |
| Cn1nccc1-c1nn(C2CCOCC2)c2cc(C(=O)N[C@@]3(C)CCS(=O)(=O)C3)cnc12 [Example 65, N-[(3S)-3-methyl-1,1-dioxo-thiolan-3-yl]-3-(2-methylpyrazol-3-yl)-1-tetrahydropyran-4-yl-pyrazolo[4,3-b]pyridine-6-carboxamide] | 10000 nM |
| CC1(NC(=O)c2cnc3c(-c4cccc(OC(F)F)c4)nn(CC4CCOCC4)c3c2)CS(=O)(=O)C1 [Example 69, 3-(3-(difluoromethoxy)phenyl)-N-(3-methyl-1,1-dioxidothietan-3-yl)-1-((tetrahydro-2H-pyran-4-yl)methyl)-1H-pyrazolo[4,3-b]pyridine-6-carboxamide] | 59 nM |
| CC1(NC(=O)c2cnc3c(-c4cccc(OC(F)F)c4)nn(Cc4ccc(F)cc4)c3c2)CS(=O)(=O)C1 [Example 70, 3-(3-(difluoromethoxy)phenyl)-1-(4-fluorobenzyl)-N-(3-methyl-1,1-dioxidothietan-3-yl)-1H-pyrazolo[4,3-b]pyridine-6-carboxamide] | 40 nM |
| CC1(NC(=O)c2cnc3c(-c4cccc(OC(F)F)c4)nn(C4CCOCC4C(F)(F)F)c3c2)CS(=O)(=O)C1 (centres unmarked) [Example 71, 3-(3-(difluoromethoxy)phenyl)-N-(3-methyl-1,1-dioxidothietan-3-yl)-1-(3-(trifluoromethyl)tetrahydro-2H-pyran-4-yl)-1H-pyrazolo[4,3-b]pyridine-6-carboxamide] | 95 nM |
| CC(C)n1nc(-c2cccc(OC(F)F)c2)c2ncc(C(=O)NC3(C(C)(C)O)CCOCC3)cc21 [Example 72, 3-(3-(difluoromethoxy)phenyl)-N-(4-(2-hydroxypropan-2-yl)tetrahydro-2H-pyran-4-yl)-1-isopropyl-1H-pyrazolo[4,3-b]pyridine-6-carboxamide] | 638 nM |
| CC(C)n1nc(-c2cccc(OC(F)F)c2)c2ncc(C(=O)NC3(CO)CCOCC3)cc21 [Example 74, 3-(3-(difluoromethoxy)phenyl)-N-(4-(hydroxymethyl)tetrahydro-2H-pyran-4-yl)-1-isopropyl-1H-pyrazolo[4,3-b]pyridine-6-carboxamide] | 64 nM |
| C[C@]1(NC(=O)c2cc3c(cn2)c(-c2cncc(OC(F)F)c2)nn3C2CCOCC2)CCS(=O)(=O)C1 [Example 79, (S)-3-(5-(difluoromethoxy)pyridin-3-yl)-N-(3-methyl-1,1-dioxidotetrahydrothiophen-3-yl)-1-(tetrahydro-2H-pyran-4-yl)-1H-pyrazolo[4,3-c]pyridine-6-carboxamide] | 10000 nM |
| C[C@]1(NC(=O)c2cnc3c(-c4cncc(OC(F)F)c4)cn(C4CCOCC4)c3c2)CCS(=O)(=O)C1 [Example 80, (S)-3-(5-(difluoromethoxy)pyridin-3-yl)-N-(3-methyl-1,1-dioxidotetrahydrothiophen-3-yl)-1-(tetrahydro-2H-pyran-4-yl)-1H-pyrrolo[3,2-b]pyridine-6-carboxamide] | 875 nM |
| C[C@]1(NC(=O)c2cnc3c(-c4cccc(OC(F)F)c4)cn(C4CCOCC4)c3c2)CCS(=O)(=O)C1 [Example 81, (S)-3-(3-(difluoromethoxy)phenyl)-N-(3-methyl-1,1-dioxidotetrahydrothiophen-3-yl)-1-(tetrahydro-2H-pyran-4-yl)-1H-pyrrolo[3,2-b]pyridine-6-carboxamide] | 208 nM |
| C[C@]1(NC(=O)c2cc3c(cn2)c(-c2cccc(OC(F)F)c2)cn3C2CCOCC2)CCS(=O)(=O)C1 [Example 82, (S)-3-(3-(difluoromethoxy)phenyl)-N-(3-methyl-1,1-dioxidotetrahydrothiophen-3-yl)-1-(tetrahydro-2H-pyran-4-yl)-1H-pyrrolo[3,2-c]pyridine-6-carboxamide] | 612 nM |
| Cn1nccc1-c1cn(C2CCOCC2)c2cc(C(=O)N[C@@]3(C)CCS(=O)(=O)C3)c(F)cc12 [Example 83] | 5430 nM |
| Cc1cc(C(=O)N[C@@]2(C)CCS(=O)(=O)C2)cc2c1c(-c1cccc(OC(F)F)c1)nn2C1CCOCC1 [Example 84, (S)-3-(3-(difluoromethoxy)phenyl)-4-methyl-N-(3-methyl-1,1-dioxidotetrahydrothiophen-3-yl)-1-(tetrahydro-2H-pyran-4-yl)-1H-indazole-6-carboxamide] | 13 nM |
| CC(C)n1nc(-c2cc(OC(F)F)ncc2F)c2nnc(C(=O)NC3(C)CCS(=O)(=O)CC3)cc21 [Example 85, 3-(2-(difluoromethoxy)-5-fluoropyridin-4-yl)-1-isopropyl-N-(4-methyl-1,1-dioxidotetrahydro-2H-thiopyran-4-yl)-1H-pyrazolo[4,3-c]pyridazine-6-carboxamide] | 143 nM |
| CC1(NC(=O)c2cnc3c(-c4cccc(OC(F)F)c4)nn(C4CC(F)(F)C4)c3c2)CS(=O)(=O)C1 [Example 86, 1-(3,3-difluorocyclobutyl)-3-(3-(difluoromethoxy)phenyl)-N-(3-methyl-1,1-dioxidothietan-3-yl)-1H-pyrazolo[4,3-b]pyridine-6-carboxamide] | 24 nM |
| CC1(NC(=O)c2cnc3c(-c4cccc(OC(F)F)c4)nn(C4CC(O)C4)c3c2)CS(=O)(=O)C1 (centres unmarked) [Example 88, 3-(3-(difluoromethoxy)phenyl)-1-(3-hydroxycyclobutyl)-N-(3-methyl-1,1-dioxidothietan-3-yl)-1H-pyrazolo[4,3-b]pyridine-6-carboxamide] | 80 nM |
| CC1(C)CC(n2nc(-c3cccc(OC(F)F)c3)c3ncc(C(=O)NC4(C)CS(=O)(=O)C4)cc32)C1 [Example 89, 3-(3-(difluoromethoxy)phenyl)-1-(3,3-dimethylcyclobutyl)-N-(3-methyl-1,1-dioxidothietan-3-yl)-1H-pyrazolo[4,3-b]pyridine-6-carboxamide] | 2.9 nM |
| CC(C(N)=O)n1nc(-c2cc(OC(F)F)ccc2F)c2ncc(C(=O)NC3(C)CS(=O)(=O)C3)cc21 (centres unmarked) [Example 90, 1-(1-amino-1-oxopropan-2-yl)-3-(5-(difluoromethoxy)-2-fluorophenyl)-N-(3-methyl-1,1-dioxidothietan-3-yl)-1H-pyrazolo[4,3-b]pyridine-6-carboxamide] | 480 nM |
| CC(C)n1nc(-c2cccc(OC(F)F)c2)c2c(C#N)cc(C(=O)NC3(C)CS(=O)(=O)C3)cc21 [Example 91, 4-cyano-3-(3-(difluoromethoxy)phenyl)-1-isopropyl-N-(3-methyl-1,1-dioxidothietan-3-yl)-1H-indazole-6-carboxamide] | 2 nM |
| CC(C)n1nc(-c2cccc(C3CC3)c2)c2ncc(C(=O)NC3(C)CS(=O)(=O)C3)cc21 [Example 92, 3-(3-cyclopropylphenyl)-1-isopropyl-N-(3-methyl-1,1-dioxidothietan-3-yl)-1H-pyrazolo[4,3-b]pyridine-6-carboxamide] | 31 nM |
| CC(C)n1nc(-c2cccc(C(C)(F)F)c2)c2ncc(C(=O)NC3(C)CS(=O)(=O)C3)cc21 [Example 93, 3-[3-(1,1-difluoroethyl)phenyl]-1-isopropyl-N-(3-methyl-1,1-dioxo-thietan-3-yl)pyrazolo[4,3-b]pyridine-6-carboxamide] | 210 nM |
